The values below are quoted from earlier work in patent US8790626B2, “Method for treating hair growth disorders, such as female pattern alopecia, and compositions useful therefore” (The University of Kentucky, priority 2005, dated 2014).

For series [1] the following is noted: Jacobson, et al., 2005.
The conditions of series [2]: U.S. Pat. No. 6,924,299.

In the case of `CCCCCCCCCCCCCCOC(=O)c1cccnc1` [Myristyl nicotinate, myristyl nicotinate], the “Epidermal differentiation and skin barrier integrity” value in series [1] was “promote epidermal differentiation leading to strong enhancement of skin barrier integrity”. In the case of `CCCCCCCCOC(=O)c1cccnc1` [octyl nicotinate], the “Blood flow and oxygen delivery to tissue” value in series [2] was “stimulates blood flow and oxygen delivery to tissue”.
